The text below walks through data of PubChem BioAssay (NCI).

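Step 1: Grow cells in 96-well plates. Step 2: Expose to compound for 48 hours at 5 concentrations. Step 3: Interpolate endpoints linearly; if unreached, use highest concentration. The concentration for 50% growth inhibition is given as GI50. TGI: concentration producing complete growth inhibition.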 Some results are limits rather than exact numbers.

Test systems include A498 renal; A549 NSCLC; HCC-2998 colon; HT29 colon; MCF7 breast; OVCAR-8 ovarian; RPMI-8226 leukemia; SF-539 CNS; SK-MEL-5 melanoma; T-47D breast.
Holding throughout (assay): NCI tumour cell line growth inhibition, 48 h

With `COc1cccc2c1cc1c3c(cc4c(c32)OCO4)C(=O)N1`, the GI50 is 0.0914 µM in the experiment with A498 renal; 5.27 µM in the experiment with A549 NSCLC; 7.82 µM with HCC-2998 colon; 5.02 µM in the experiment on HT29 colon; 2960 nM in the experiment with MCF7 breast; 2.28 µM in the experiment with OVCAR-8 ovarian. In addition, the GI50 was 5.29 µM in the experiment on RPMI-8226 leukemia, 4.8 µM in the experiment on SF-539 CNS, 4.49 µM with SK-MEL-5 melanoma and 2.33 µM with T-47D breast. Also, the TGI in the experiment on A498 renal is 4 µM; with A549 NSCLC, over 100 µM; in the experiment on HCC-2998 colon, over 100 µM; in the experiment with HT29 colon it was 73 µM; in the experiment with MCF7 breast, 11.1 µM; with OVCAR-8 ovarian, 6.01 µM. Besides, the TGI in the experiment on RPMI-8226 leukemia was over 100 µM; in the experiment with SF-539 CNS it was 21.2 µM; in the experiment on SK-MEL-5 melanoma it was over 100 µM; in the experiment on T-47D breast it was 6.81 µM.
`C=CC(C)(O)CC/C=C(\CO)C(=O)OC1C(C)OC(O[C@](C)(C=C)CC/C=C(\CO)C(=O)O[C@H]2C[C@@]3(C(=O)OC4OC(CO)C(O)C(O)C4OC4OC(C)C(OC5OC(CO)C(O)C5O)C(OC5OC(CO)C(O)C(O)C5O)C4O)C(CC2(C)C)C2=CCC4[C@@]5(C)CC[C@H](OC6OC(COC7OC(C)C(O)C(O)C7OC7OCC(O)C(O)C7O)C(O)C(O)C6NC(C)=O)C(C)(C)C5CC[C@@]4(C)[C@]2(C)C[C@H]3O)C(O)C1O` (stereo not given in full): the GI50 is 0.142 µM in the experiment with A498 renal; 0.286 µM with A549 NSCLC; 0.0688 µM in the experiment on HCC-2998 colon; 1.42 µM in the experiment on HT29 colon; 822 nM in the experiment on MCF7 breast; 0.372 µM in the experiment on OVCAR-8 ovarian. Also, the GI50 is 5 µM with RPMI-8226 leukemia, 4.86 µM with SF-539 CNS, 1.99 µM in the experiment on SK-MEL-5 melanoma and 0.155 µM with T-47D breast. The TGI was found to be 0.585 µM in the experiment with A498 renal; 1.49 µM with A549 NSCLC; 0.195 µM with HCC-2998 colon; 6.06 µM in the experiment on HT29 colon; 4.1 µM in the experiment on MCF7 breast; 6.45 µM in the experiment on OVCAR-8 ovarian. The TGI came out at 18 µM with RPMI-8226 leukemia, 9.77 µM in the experiment with SF-539 CNS, 6.22 µM in the experiment on SK-MEL-5 melanoma and 0.739 µM with T-47D breast.
`O=C(C=C=Nc1ccccc1)C(=O)N=C=Cc1ccccc1`: the GI50 in the experiment with A498 renal is 16 µM; with A549 NSCLC, 6.74 µM; with HCC-2998 colon, 4.04 µM; in the experiment on HT29 colon, 1.89 µM; in the experiment on MCF7 breast, 2350 nM; in the experiment on OVCAR-8 ovarian, 3.84 µM. Further, the GI50 is 0.534 µM in the experiment on RPMI-8226 leukemia, 9.39 µM in the experiment with SF-539 CNS, 5.16 µM with SK-MEL-5 melanoma and 1.62 µM with T-47D breast. For the same compound, the TGI in the experiment with A498 renal amounted to 34 µM; in the experiment with A549 NSCLC, 22.9 µM; in the experiment on HCC-2998 colon, 9.49 µM; in the experiment with HT29 colon, 4.74 µM; in the experiment with MCF7 breast, 12.6 µM; with OVCAR-8 ovarian, 14.4 µM. The TGI in the experiment with RPMI-8226 leukemia was 2.29 µM; in the experiment with SF-539 CNS it was 23 µM; in the experiment on SK-MEL-5 melanoma it was 17.7 µM; in the experiment on T-47D breast it was 3.94 µM.
`O=C(/C=C/c1ccco1)c1ccc(Nc2nc(Nc3ccc(F)cc3)nc(Nc3ccc(F)cc3)n2)cc1`: the GI50 is 7.28 µM in the experiment on A498 renal; 19.8 µM in the experiment on A549 NSCLC; 36 µM with HCC-2998 colon; 18.1 µM in the experiment with HT29 colon; 3740 nM with MCF7 breast; 17.4 µM in the experiment on OVCAR-8 ovarian. In addition, the GI50 was 8.99 µM with RPMI-8226 leukemia, 24.8 µM with SF-539 CNS, 27 µM in the experiment on SK-MEL-5 melanoma and 11.4 µM in the experiment on T-47D breast. Further, the TGI in the experiment with A498 renal is over 100 µM; in the experiment on A549 NSCLC, over 100 µM; with HCC-2998 colon it was over 100 µM; in the experiment with HT29 colon, over 100 µM; in the experiment on MCF7 breast, 25.9 µM; in the experiment with OVCAR-8 ovarian it was 46.1 µM. Also, the TGI in the experiment on RPMI-8226 leukemia is over 100 µM; with SF-539 CNS, 63.5 µM; in the experiment on SK-MEL-5 melanoma it was over 100 µM; in the experiment on T-47D breast it was 59.8 µM.
For the compound `COc1cc(/C=N/NC(=O)c2ccccc2Nc2cccc(C(F)(F)F)c2)cc(OC)c1OC`, the GI50 is 1.93 µM in the experiment with A498 renal; 3.6 µM in the experiment on A549 NSCLC; 5.29 µM in the experiment with HCC-2998 colon; 1.67 µM in the experiment on HT29 colon; 1570 nM with MCF7 breast; 4.81 µM in the experiment on OVCAR-8 ovarian. In addition, the GI50 in the experiment with RPMI-8226 leukemia was 0.754 µM; in the experiment with SF-539 CNS, 2.14 µM; in the experiment on SK-MEL-5 melanoma it was 2.93 µM; in the experiment on T-47D breast it was 3.33 µM. Further, the TGI in the experiment with A498 renal worked out at 6.76 µM; in the experiment on A549 NSCLC, 10.8 µM; in the experiment with HCC-2998 colon, 15.6 µM; with HT29 colon, 10.8 µM; in the experiment with MCF7 breast it was 6.86 µM; in the experiment with OVCAR-8 ovarian it was 11.6 µM. For the same compound, the TGI is over 22.7 µM in the experiment on RPMI-8226 leukemia, 5.62 µM in the experiment with SF-539 CNS, 10.8 µM with SK-MEL-5 melanoma and 13.5 µM in the experiment with T-47D breast.
With `C/C(=N/O)c1ccc(Nc2cc(-n3ccnc3)c3ccccc3n2)cc1`, the GI50 in the experiment on A498 renal was 27.6 µM; in the experiment on A549 NSCLC it was 7.21 µM; with HCC-2998 colon, 48 µM; in the experiment with HT29 colon, 8.34 µM; with MCF7 breast, 85300 nM; in the experiment with OVCAR-8 ovarian, 6.01 µM. Besides, the GI50 is 0.716 µM in the experiment with RPMI-8226 leukemia, 11.5 µM in the experiment with SF-539 CNS, 16.3 µM in the experiment with SK-MEL-5 melanoma and 9.96 µM in the experiment with T-47D breast. Further, the TGI with A498 renal is 94 µM; with A549 NSCLC, 36.4 µM; in the experiment on HCC-2998 colon, over 100 µM; in the experiment on HT29 colon, over 100 µM; in the experiment with MCF7 breast, over 100 µM; in the experiment on OVCAR-8 ovarian, 25.5 µM. For the same compound, the TGI with RPMI-8226 leukemia was 4.42 µM; in the experiment with SF-539 CNS it was over 100 µM; with SK-MEL-5 melanoma, over 100 µM; in the experiment on T-47D breast, over 100 µM.
For the compound `NC(=O)c1ccc(N(C(N)=O)c2c(F)cccc2F)nc1-c1ccc(F)cc1F`, the GI50 in the experiment with A498 renal was over 45.4 µM; with A549 NSCLC it was over 100 µM; with HCC-2998 colon it was over 100 µM; with HT29 colon it was over 100 µM; in the experiment on MCF7 breast, over 100000 nM; with OVCAR-8 ovarian it was over 100 µM. The GI50 in the experiment on RPMI-8226 leukemia, in the experiment with SF-539 CNS, in the experiment with SK-MEL-5 melanoma and with T-47D breast was over 100 µM throughout. Besides, the TGI in the experiment on A498 renal, in the experiment on A549 NSCLC, in the experiment on HCC-2998 colon, with HT29 colon, with MCF7 breast and with OVCAR-8 ovarian was over 100 µM each time. Further, the TGI in the experiment on RPMI-8226 leukemia, with SF-539 CNS, in the experiment on SK-MEL-5 melanoma and in the experiment on T-47D breast was over 100 µM in each case.
